According to article PMC5218480 (PLoS ONE, 2017):

System: MV-4-11 cells
Experiment: Gene expression microarray analysis (Affymetrix PrimeView) and GSEA
Assay type: cell-based, human
Design: RFU PODN (11730768_x_at) / Fold change /veh PODN (11730768_x_at) / RFU LINC00158 (11744669_a_at) / Fold change /veh LINC00158 (11744669_a_at) / RFU DUSP10 (11751237_a_at) / Fold change /veh DUSP10 (11751237_a_at) / RFU ID3 (11757404_x_at) / Fold change /veh ID3 (11757404_x_at) / RFU PLEKHG5 (11737974_s_at) / Fold change /veh PLEKHG5 (11737974_s_at) / RFU LRRC4B (11730491_at) / Fold change /veh LRRC4B (11730491_at) / RFU GIMAP4 (11747438_a_at) / Fold change /veh GIMAP4 (11747438_a_at) / RFU KRT8 (11758183_x_at) / Fold change /veh KRT8 (11758183_x_at) / RFU CNN1 (11734310_a_at) / Fold change /veh CNN1 (11734310_a_at) / RFU VPS37D (11726825_at) / Fold change /veh VPS37D (11726825_at) / RFU C10orf10 (11716522_x_at) / Fold change /veh C10orf10 (11716522_x_at) / RFU KIR2DL2 /// KIR2DL4 /// KIR2DL5A /// KIR2DL5B /// KIR2DS1 /// KIR2DS2 /// KIR2DS3 /// KIR2DS4 /// KIR3DL3 /// KIR3DL3 /// KIR3DS1 (11738374_at) / Fold change /veh KIR2DL2 /// KIR2DL4 /// KIR2DL5A /// KIR2DL5B /// KIR2DS1 /// KIR2DS2 /// KIR2DS3 /// KIR2DS4 /// KIR3DL3 /// KIR3DL3 /// KIR3DS1 (11738374_at) / RFU C1QL1 (11718748_at) / Fold change /veh C1QL1 (11718748_at) / RFU TMPRSS4 (11747572_a_at) / Fold change /veh TMPRSS4 (11747572_a_at) / RFU HAMP (11756126_x_at) / Fold change /veh HAMP (11756126_x_at) / RFU RNFT2 (11725882_a_at) / Fold change /veh RNFT2 (11725882_a_at) / RFU NR4A2 (11747474_a_at) / Fold change /veh NR4A2 (11747474_a_at) / RFU ABCC12 (11746883_a_at) / Fold change /veh ABCC12 (11746883_a_at) / RFU TMEM136 (11760407_x_at) / Fold change /veh TMEM136 (11760407_x_at) / RFU CLDN22 /// WWC2 (11732394_at) / Fold change /veh CLDN22 /// WWC2 (11732394_at) / RFU HLA-DPB1 (11760878_x_at) / Fold change /veh HLA-DPB1 (11760878_x_at) / RFU SPINT1 (11716480_a_at) / Fold change /veh SPINT1 (11716480_a_at) / RFU GAP43 (11754022_s_at) / Fold change /veh GAP43 (11754022_s_at) / RFU A4GNT (11735810_at) / Fold change /veh A4GNT (11735810_at) / RFU PRB3 (11715151_x_at) / Fold change /veh PRB3 (11715151_x_at) / RFU TUBB4B (11761932_at) / Fold change /veh TUBB4B (11761932_at) / RFU CAPN14 (11732068_a_at) / Fold change /veh CAPN14 (11732068_a_at) / RFU TMCC2 (11721928_a_at) / Fold change /veh TMCC2 (11721928_a_at) / RFU IRGQ (11745062_a_at) / Fold change /veh IRGQ (11745062_a_at) / RFU FAM174B (11720279_a_at) / Fold change /veh FAM174B (11720279_a_at) / RFU TMPRSS4 (11748680_a_at) / Fold change /veh TMPRSS4 (11748680_a_at) / RFU FAM212B (11763350_a_at) / Fold change /veh FAM212B (11763350_a_at) / RFU PLEKHG5 (11743358_a_at) / Fold change /veh PLEKHG5 (11743358_a_at) / RFU ZSCAN30 (11745921_a_at) / Fold change /veh ZSCAN30 (11745921_a_at) / RFU CMKLR1 (11741424_a_at) / Fold change /veh CMKLR1 (11741424_a_at) / RFU LOC101060620 /// MAPK8IP1 (11723275_at) / Fold change /veh LOC101060620 /// MAPK8IP1 (11723275_at) / RFU SPTSSB (11747773_x_at) / Fold change /veh SPTSSB (11747773_x_at) / RFU PRSS12 (11739890_at) / Fold change /veh PRSS12 (11739890_at) / RFU BIN1 (11741810_x_at) / Fold change /veh BIN1 (11741810_x_at) / RFU WNT11 (11732464_a_at) / Fold change /veh WNT11 (11732464_a_at) / RFU C10orf10 (11716521_a_at) / Fold change /veh C10orf10 (11716521_a_at) / RFU C5orf56 (11738089_at) / Fold change /veh C5orf56 (11738089_at) / RFU CYB561 (11721691_x_at) / Fold change /veh CYB561 (11721691_x_at) / RFU ANKRD19P (11752326_a_at) / Fold change /veh ANKRD19P (11752326_a_at) / RFU OR2T12 /// OR2T33 /// OR2T8 (11738714_s_at) / Fold change /veh OR2T12 /// OR2T33 /// OR2T8 (11738714_s_at) / RFU VCAN (11748164_a_at) / Fold change /veh VCAN (11748164_a_at) / RFU JSRP1 (11732532_at) / Fold change /veh JSRP1 (11732532_at) / RFU KRTAP10-11 (11738290_x_at) / Fold change /veh KRTAP10-11 (11738290_x_at) / RFU MYO3A (11730013_a_at) / Fold change /veh MYO3A (11730013_a_at) / RFU EBF3 (11725865_a_at) / Fold change /veh EBF3 (11725865_a_at) / RFU CAMK2N1 (11719241_x_at) / Fold change /veh CAMK2N1 (11719241_x_at) / RFU C5orf56 (11738088_a_at) / Fold change /veh C5orf56 (11738088_a_at) / RFU OLFML3 (11715873_a_at) / Fold change /veh OLFML3 (11715873_a_at) / RFU LOC100653217 /// NTM (11731650_a_at) / Fold change /veh LOC100653217 /// NTM (11731650_a_at) / RFU MAPK11 (11762145_a_at) / Fold change /veh MAPK11 (11762145_a_at) / RFU FIZ1 (11724087_x_at) / Fold change /veh FIZ1 (11724087_x_at) / RFU OASL (11726364_x_at) / Fold change /veh OASL (11726364_x_at) / RFU SOX15 (11748057_x_at) / Fold change /veh SOX15 (11748057_x_at) / RFU CD79A (11719716_a_at) / Fold change /veh CD79A (11719716_a_at) / RFU HIST1H1D (11736915_at) / Fold change /veh HIST1H1D (11736915_at) / RFU CASKIN2 (11723855_a_at) / Fold change /veh CASKIN2 (11723855_a_at) / RFU LOC730098 (11760151_x_at) / Fold change /veh LOC730098 (11760151_x_at) / RFU OR4N2 (11742367_at) / Fold change /veh OR4N2 (11742367_at) / RFU PRRT2 (11749266_a_at) / Fold change /veh PRRT2 (11749266_a_at) / RFU SNX32 (11753110_a_at) / Fold change /veh SNX32 (11753110_a_at) / RFU CDHR5 (11726645_a_at) / Fold change /veh CDHR5 (11726645_a_at) / RFU RCAN1 (11760418_a_at) / Fold change /veh RCAN1 (11760418_a_at) / RFU FAM167A (11723789_a_at) / Fold change /veh FAM167A (11723789_a_at) / RFU FAM26E (11764081_at) / Fold change /veh FAM26E (11764081_at) / RFU ISYNA1 (11749810_s_at) / Fold change /veh ISYNA1 (11749810_s_at) / RFU ACY1 (11761880_at) / Fold change /veh ACY1 (11761880_at) / RFU 11764098_at / Fold change /veh 11764098_at / RFU SAMD14 (11745864_x_at) / Fold change /veh SAMD14 (11745864_x_at) / RFU NPB (11741838_a_at) / Fold change /veh NPB (11741838_a_at) / RFU TMPRSS6 (11731388_a_at) / Fold change /veh TMPRSS6 (11731388_a_at) / RFU KRTAP10-2 (11738614_at) / Fold change /veh KRTAP10-2 (11738614_at) / RFU ARHGAP8 /// PRR5-ARHGAP8 (11727945_x_at) / Fold change /veh ARHGAP8 /// PRR5-ARHGAP8 (11727945_x_at) / RFU KRTAP5-7 /// NADSYN1 (11734609_at) / Fold change /veh KRTAP5-7 /// NADSYN1 (11734609_at) / RFU RASL12 (11751679_a_at) / Fold change /veh RASL12 (11751679_a_at) / RFU CDKN2B (11736163_a_at) / Fold change /veh CDKN2B (11736163_a_at) / RFU PRF1 (11729649_at) / Fold change /veh PRF1 (11729649_at) / RFU, ZNF638 /// ZNF638-IT1 / Fold change vs veh, ZNF638 /// ZNF638-IT1 / RFU, PANK3 / Fold change vs veh, PANK3 / RFU, SH3YL1 / Fold change vs veh, SH3YL1 / RFU, ZEB2 / Fold change vs veh, ZEB2 / RFU, NRIP1 / Fold change vs veh, NRIP1 / RFU, PTTG1IP / Fold change vs veh, PTTG1IP / RFU, CAPN2 / Fold change vs veh, CAPN2 / RFU, MED14 / Fold change vs veh, MED14 / RFU, SNORA58 / Fold change vs veh, SNORA58 / RFU, C1orf63 / Fold change vs veh, C1orf63 / RFU, LRRFIP1 / Fold change vs veh, LRRFIP1 / RFU, NDUFAF7 / Fold change vs veh, NDUFAF7 / RFU, SLC12A2 / Fold change vs veh, SLC12A2 / RFU, IBTK / Fold change vs veh, IBTK / RFU, ESF1 / Fold change vs veh, ESF1 / Fold change vs veh, TMEM50B / RFU, TAOK1 / Fold change vs veh, TAOK1 / RFU, ACBD3 / Fold change vs veh, ACBD3 / RFU, TMA16 / Fold change vs veh, TMA16 / RFU, RWDD3 / Fold change vs veh, RWDD3 / RFU, BCAT1 / Fold change vs veh, BCAT1 / RFU, EDEM3 / Fold change vs veh, EDEM3 / RFU, TMEM33 / Fold change vs veh, TMEM33 / RFU, WDR75 / Fold change vs veh, WDR75 / RFU, AHCTF1 / Fold change vs veh, AHCTF1 / RFU, TFRC / Fold change vs veh, TFRC / RFU, ZDHHC17 / Fold change vs veh, ZDHHC17 / RFU, NOM1 / Fold change vs veh, NOM1 / RFU, ARL8B / Fold change vs veh, ARL8B / RFU, ZBTB11 / Fold change vs veh, ZBTB11 / RFU, TAMM41 / Fold change vs veh, TAMM41 / RFU, KIAA1704 /// LOC100996395 / Fold change vs veh, KIAA1704 /// LOC100996395 / RFU, ING1 / Fold change vs veh, ING1 / RFU, TRMT61B / Fold change vs veh, TRMT61B / RFU, FUBP3 / Fold change vs veh, FUBP3 / RFU, TP53 / Fold change vs veh, TP53 / RFU, TNKS2 / Fold change vs veh, TNKS2 / RFU, ZFP14 / Fold change vs veh, ZFP14 / RFU, ACTR2 / Fold change vs veh, ACTR2 / RFU, PPP3R1 / Fold change vs veh, PPP3R1 / RFU, PIK3R1 / Fold change vs veh, PIK3R1 / RFU, HNRNPA1 / Fold change vs veh, HNRNPA1 / RFU, RNF170 / Fold change vs veh, RNF170 / RFU, ZNF28 / Fold change vs veh, ZNF28 / RFU, RNGTT / Fold change vs veh, RNGTT / RFU, OGT / Fold change vs veh, OGT / RFU, BRD1 / Fold change vs veh, BRD1 / RFU, MARS / Fold change vs veh, MARS / RFU, ZNF655 / Fold change vs veh, ZNF655 / RFU, FAHD1 / Fold change vs veh, FAHD1 / RFU, BDP1 / Fold change vs veh, BDP1 / RFU, LRRCC1 / Fold change vs veh, LRRCC1 / RFU, ARID1A / Fold change vs veh, ARID1A / RFU, ZNF146 / Fold change vs veh, ZNF146 / RFU, ZNF330 / Fold change vs veh, ZNF330 / RFU, GPN3 / Fold change vs veh, GPN3 / RFU, C9orf123 / Fold change vs veh, C9orf123 / RFU, N4BP2L2 / Fold change vs veh, N4BP2L2 / RFU, ARFIP1 / Fold change vs veh, ARFIP1 / RFU, FAM179B / Fold change vs veh, FAM179B / RFU, BCL10 / Fold change vs veh, BCL10 / RFU, UHRF1BP1L / Fold change vs veh, UHRF1BP1L / RFU, BET1 / Fold change vs veh, BET1 / RFU, CNOT2 / Fold change vs veh, CNOT2 / RFU, ZNF268 / Fold change vs veh, ZNF268 / Fold change vs veh, ZNF507 / RFU, DGCR2 / Fold change vs veh, DGCR2 / RFU, WDSUB1 / Fold change vs veh, WDSUB1 / Fold change vs veh, HSP90B1 /// MIR3652 / RFU, ADSS / Fold change vs veh, ADSS / RFU, GK / Fold change vs veh, GK / RFU, ZNF148 / Fold change vs veh, ZNF148 / RFU, TAF9 / Fold change vs veh, TAF9 / RFU, SLC1A5 / Fold change vs veh, SLC1A5 / RFU, SLMO2 / Fold change vs veh, SLMO2 / RFU, ABCC4 / Fold change vs veh, ABCC4 / RFU, LOC101060439 /// RAP1B / Fold change vs veh, LOC101060439 /// RAP1B / RFU, RFX7 / Fold change vs veh, RFX7 / RFU, GTPBP10 / Fold change vs veh, GTPBP10 / RFU, CNEP1R1 / Fold change vs veh, CNEP1R1 / RFU, BIVM-ERCC5 /// ERCC5 / Fold change vs veh, BIVM-ERCC5 /// ERCC5 / RFU, ILF3 / Fold change vs veh, ILF3 / RFU 11762660_at / Fold change /veh 11762660_at / RFU VCAN (11757783_s_at) / Fold change /veh VCAN (11757783_s_at) / RFU DDX43 (11728927_at) / Fold change /veh DDX43 (11728927_at) / RFU KRT8 (11758188_x_at) / Fold change /veh KRT8 (11758188_x_at) / RFU NKD1 (11759106_at) / Fold change /veh NKD1 (11759106_at) / RFU SRD5A1 (11742802_a_at) / Fold change /veh SRD5A1 (11742802_a_at) / RFU TPSAB1 /// TPSB2 (11721975_s_at) / Fold change /veh TPSAB1 /// TPSB2 (11721975_s_at) / RFU GSTM3 (11746129_a_at) / Fold change /veh GSTM3 (11746129_a_at) / RFU IL23R (11737362_x_at) / Fold change /veh IL23R (11737362_x_at) / RFU TMEM51 (11727254_a_at) / Fold change /veh TMEM51 (11727254_a_at) / RFU PIWIL2 (11732686_x_at) / Fold change /veh PIWIL2 (11732686_x_at) / RFU ORM1 (11744905_x_at) / Fold change /veh ORM1 (11744905_x_at) / RFU CCDC152 (11743942_at) / Fold change /veh CCDC152 (11743942_at) / RFU ECM1 (11717891_a_at) / Fold change /veh ECM1 (11717891_a_at) / RFU IL23R (11748794_a_at) / Fold change /veh IL23R (11748794_a_at) / RFU TNFAIP8L3 (11732012_x_at) / Fold change /veh TNFAIP8L3 (11732012_x_at) / RFU MBOAT4 (11741988_at) / Fold change /veh MBOAT4 (11741988_at) / RFU 11764193_at / Fold change /veh 11764193_at / RFU TMEM53 (11763286_at) / Fold change /veh TMEM53 (11763286_at) / RFU MAGEB2 (11727129_at) / Fold change /veh MAGEB2 (11727129_at) / RFU TMEM200A (11744735_a_at) / Fold change /veh TMEM200A (11744735_a_at) / RFU CCDC152 (11751479_a_at) / Fold change /veh CCDC152 (11751479_a_at) / RFU FAM211A (11726209_a_at) / Fold change /veh FAM211A (11726209_a_at) / RFU RGS16 (11746705_a_at) / Fold change /veh RGS16 (11746705_a_at) / RFU VCAN (11755009_s_at) / Fold change /veh VCAN (11755009_s_at) / RFU RHOB (11743442_s_at) / Fold change /veh RHOB (11743442_s_at) / RFU RGS16 (11720943_a_at) / Fold change /veh RGS16 (11720943_a_at) / RFU RGS16 (11720944_at) / Fold change /veh RGS16 (11720944_at) / RFU, VPS4B / Fold change vs veh, VPS4B / RFU, CREB1 / Fold change vs veh, CREB1 / RFU, DNAJC13 / Fold change vs veh, DNAJC13 / RFU, GNAQ / Fold change vs veh, GNAQ / RFU, CDK5R1 / Fold change vs veh, CDK5R1 / RFU, ZRANB3 / Fold change vs veh, ZRANB3 / RFU, CUL4A / Fold change vs veh, CUL4A / RFU, CCNY / Fold change vs veh, CCNY / RFU, UFL1 / Fold change vs veh, UFL1 / RFU, COG3 / Fold change vs veh, COG3 / RFU, DIAPH2 / Fold change vs veh, DIAPH2 / RFU, SKA2 / Fold change vs veh, SKA2 / RFU, AFF3 / Fold change vs veh, AFF3 / RFU, LMF1 / Fold change vs veh, LMF1 / RFU, IPO11 / Fold change vs veh, IPO11 / RFU, DFFB / Fold change vs veh, DFFB / RFU, FOXP1 / Fold change vs veh, FOXP1 / RFU, CARD8 / Fold change vs veh, CARD8 / RFU, STRN3 / Fold change vs veh, STRN3 / RFU, ADK / Fold change vs veh, ADK / RFU, RASSF2 / Fold change vs veh, RASSF2 / RFU, WIPF1 / Fold change vs veh, WIPF1 / RFU, LARP1B / Fold change vs veh, LARP1B / RFU, RASA1 / Fold change vs veh, RASA1 / RFU, RB1 / Fold change vs veh, RB1 / RFU, PPFIA1 / Fold change vs veh, PPFIA1 / RFU, MAT2A / Fold change vs veh, MAT2A / RFU, CCT5 / Fold change vs veh, CCT5 / RFU, WDR92 / Fold change vs veh, WDR92 / RFU, CUX1 / Fold change vs veh, CUX1 / RFU, TTC7A / Fold change vs veh, TTC7A / RFU, TMEM135 / Fold change vs veh, TMEM135 / RFU, DEPTOR / Fold change vs veh, DEPTOR / RFU, CPM / Fold change vs veh, CPM / RFU, DNAJB6 / Fold change vs veh, DNAJB6 / RFU, CACNA2D3 / Fold change vs veh, CACNA2D3 / RFU, DTX4 / Fold change vs veh, DTX4 / RFU, TFCP2 / Fold change vs veh, TFCP2 / RFU, GMCL1 /// GMCL1P1 / Fold change vs veh, GMCL1 /// GMCL1P1 / RFU, AEBP2 / Fold change vs veh, AEBP2 / RFU, SNHG1 /// SNORD22 /// SNORD25 /// SNORD26 /// SNORD27 /// SNORD28 /// SNORD29 /// SNORD31 / Fold change vs veh, SNHG1 /// SNORD22 /// SNORD25 /// SNORD26 /// SNORD27 /// SNORD28 /// SNORD29 /// SNORD31 / Fold change (Aza/veh), C12orf56 (ProbeSet 11735607_a_at) / Fold change (ACY-1035/veh), C12orf56 (ProbeSet 11735607_a_at) / Fold change (Aza/veh), FGFR1OP (ProbeSet 11751329_s_at) / Fold change (ACY-1035/veh), FGFR1OP (ProbeSet 11751329_s_at) / Fold change (Aza/veh), VPS36 (ProbeSet 11739960_a_at) / Fold change (ACY-1035/veh), VPS36 (ProbeSet 11739960_a_at) / RFU SYPL1 (11715823_x_at) / Fold change /veh SYPL1 (11715823_x_at) / RFU IGFBP7 (11715501_s_at) / Fold change /veh IGFBP7 (11715501_s_at) / RFU REEP3 (11722064_at) / Fold change /veh REEP3 (11722064_at) / RFU IGLL1 (11728026_x_at) / Fold change /veh IGLL1 (11728026_x_at): dose or concentration left out as unconfirmed
Conditions: ProbeSet 11719817_x_at; LIST B

Nc1ncn([C@@H]2O[C@H](CO)[C@@H](O)[C@H]2O)c(=O)n1 [azacitidine]
Fold change vs veh, BET1: 0.89
